# Source: patent publication US20210221822A1, “TRICYCLIC DERIVATIVES INHIBITOR, PREPARATION METHOD, AND APPLICATIONS THEREOF” (Jiangsu Hansoh Pharmaceutical Group Co., Ltd., priority 2018, published 2021)
# How the values were obtained:
# PI3Kα = biological target: T1, PI3Kα (Homo sapiens, UniProt P42336); assay: ADP-Glo lipid kinase assay, PI3Kα kinase activity; assay type: biochemical
# T1 construct: purchased Promega V1721
# Summary of the method: (§1)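 ADP-Glo luminescence measured ADP formed by PI3Kα, β, γ or δ (0.1-2 nM working solution) with PIP2:3PS (50 μM added solution) and ATP in HEPES/MgCl2/NaCl/BSA buffer, 90 to 120 min at room temperature. % inhibition was set against DMSO and no-kinase controls, and IC50 came from a four-parameter fit.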
# PI3Kβ = biological target: T2, PI3Kβ (Homo sapiens, UniProt P42338); assay: ADP-Glo lipid kinase assay, PI3Kβ kinase activity; assay type: biochemical; settings: 0.4 nM enzyme, 90 min, 100 μM ATP
# T2 construct: purchased Carna 11-102
# T2 sequence (P42338 whole entry): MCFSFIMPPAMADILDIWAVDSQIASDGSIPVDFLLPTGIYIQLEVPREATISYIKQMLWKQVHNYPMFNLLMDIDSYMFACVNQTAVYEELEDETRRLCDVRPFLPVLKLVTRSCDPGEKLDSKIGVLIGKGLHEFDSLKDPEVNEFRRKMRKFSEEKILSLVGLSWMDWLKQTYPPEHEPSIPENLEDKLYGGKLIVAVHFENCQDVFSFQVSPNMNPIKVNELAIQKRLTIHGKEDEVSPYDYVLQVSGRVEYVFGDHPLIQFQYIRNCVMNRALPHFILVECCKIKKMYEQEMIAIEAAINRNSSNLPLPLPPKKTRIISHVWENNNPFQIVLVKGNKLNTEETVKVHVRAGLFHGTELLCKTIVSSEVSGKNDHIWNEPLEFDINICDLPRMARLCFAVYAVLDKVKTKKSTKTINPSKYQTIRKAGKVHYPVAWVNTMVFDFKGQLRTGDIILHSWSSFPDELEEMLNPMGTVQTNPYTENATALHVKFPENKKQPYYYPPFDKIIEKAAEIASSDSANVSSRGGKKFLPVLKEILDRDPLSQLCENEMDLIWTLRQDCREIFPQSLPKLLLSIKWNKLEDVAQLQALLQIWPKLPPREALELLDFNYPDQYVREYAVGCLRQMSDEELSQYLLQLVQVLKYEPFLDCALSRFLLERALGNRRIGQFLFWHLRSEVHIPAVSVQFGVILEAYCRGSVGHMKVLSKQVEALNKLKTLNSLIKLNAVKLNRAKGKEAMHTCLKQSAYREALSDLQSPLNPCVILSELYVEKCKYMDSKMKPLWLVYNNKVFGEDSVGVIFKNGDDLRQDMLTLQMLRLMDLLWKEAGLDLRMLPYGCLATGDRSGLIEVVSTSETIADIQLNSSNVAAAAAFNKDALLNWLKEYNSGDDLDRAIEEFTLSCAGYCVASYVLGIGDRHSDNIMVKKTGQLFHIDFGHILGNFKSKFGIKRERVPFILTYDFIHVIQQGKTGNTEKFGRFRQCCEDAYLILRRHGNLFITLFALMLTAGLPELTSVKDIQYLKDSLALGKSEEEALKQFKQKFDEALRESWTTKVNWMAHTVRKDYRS
# T2 sequence (P27986 whole entry partner): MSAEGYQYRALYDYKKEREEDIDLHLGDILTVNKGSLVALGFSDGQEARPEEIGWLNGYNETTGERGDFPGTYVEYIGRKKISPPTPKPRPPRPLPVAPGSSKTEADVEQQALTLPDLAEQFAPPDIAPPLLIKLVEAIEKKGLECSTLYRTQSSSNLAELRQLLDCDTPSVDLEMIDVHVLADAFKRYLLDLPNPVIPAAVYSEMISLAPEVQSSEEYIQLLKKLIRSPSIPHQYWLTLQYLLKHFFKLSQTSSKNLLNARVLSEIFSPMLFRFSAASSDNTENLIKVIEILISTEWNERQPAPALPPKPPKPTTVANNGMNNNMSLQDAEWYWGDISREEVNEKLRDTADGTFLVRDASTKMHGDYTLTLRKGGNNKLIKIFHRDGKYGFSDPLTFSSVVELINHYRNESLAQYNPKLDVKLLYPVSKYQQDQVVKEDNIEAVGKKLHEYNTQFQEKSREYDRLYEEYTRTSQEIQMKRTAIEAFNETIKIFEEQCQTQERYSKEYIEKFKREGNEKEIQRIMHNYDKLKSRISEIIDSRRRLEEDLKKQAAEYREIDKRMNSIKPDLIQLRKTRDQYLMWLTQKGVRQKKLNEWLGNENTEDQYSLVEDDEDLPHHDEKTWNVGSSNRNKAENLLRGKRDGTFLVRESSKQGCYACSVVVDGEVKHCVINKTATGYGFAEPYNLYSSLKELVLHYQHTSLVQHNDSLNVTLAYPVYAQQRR
# Summary of the method: as §1
# PI3Kγ = biological target: T3, PI3Kγ (Homo sapiens, UniProt P48736); assay: ADP-Glo lipid kinase assay, PI3Kγ kinase activity; assay type: biochemical; settings: 0.4 nM enzyme, 120 min, 50 μM ATP
# T3 construct: purchased Thermofisher PV4786
# T3 sequence (P48736 whole entry): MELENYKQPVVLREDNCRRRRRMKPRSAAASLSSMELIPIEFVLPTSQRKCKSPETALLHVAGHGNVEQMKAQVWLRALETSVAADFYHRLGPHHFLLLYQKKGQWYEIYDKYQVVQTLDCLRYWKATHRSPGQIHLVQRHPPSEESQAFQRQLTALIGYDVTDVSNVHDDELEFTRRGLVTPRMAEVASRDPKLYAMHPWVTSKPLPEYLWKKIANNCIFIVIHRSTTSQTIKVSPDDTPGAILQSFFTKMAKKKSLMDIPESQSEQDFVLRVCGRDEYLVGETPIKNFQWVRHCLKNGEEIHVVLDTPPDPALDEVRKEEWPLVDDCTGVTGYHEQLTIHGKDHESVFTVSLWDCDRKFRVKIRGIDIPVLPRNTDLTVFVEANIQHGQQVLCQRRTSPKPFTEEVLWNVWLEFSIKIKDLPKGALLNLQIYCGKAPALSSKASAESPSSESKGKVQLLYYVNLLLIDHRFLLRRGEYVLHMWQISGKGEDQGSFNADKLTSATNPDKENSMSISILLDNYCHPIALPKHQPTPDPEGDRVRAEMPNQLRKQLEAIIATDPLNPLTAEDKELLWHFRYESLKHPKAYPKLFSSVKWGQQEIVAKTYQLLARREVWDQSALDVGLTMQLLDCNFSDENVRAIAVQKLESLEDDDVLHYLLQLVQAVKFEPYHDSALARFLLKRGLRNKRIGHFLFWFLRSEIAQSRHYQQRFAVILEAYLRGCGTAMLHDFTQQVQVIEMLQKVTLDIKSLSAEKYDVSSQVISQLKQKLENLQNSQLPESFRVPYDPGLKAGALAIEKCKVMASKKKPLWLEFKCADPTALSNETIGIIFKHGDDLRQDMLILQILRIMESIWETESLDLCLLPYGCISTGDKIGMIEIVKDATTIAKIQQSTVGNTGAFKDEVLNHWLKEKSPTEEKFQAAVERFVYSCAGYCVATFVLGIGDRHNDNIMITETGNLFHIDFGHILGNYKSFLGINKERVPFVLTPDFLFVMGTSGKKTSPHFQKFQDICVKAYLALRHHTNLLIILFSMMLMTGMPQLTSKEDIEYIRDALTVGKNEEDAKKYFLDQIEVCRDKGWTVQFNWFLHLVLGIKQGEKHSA
# Summary of the method: as §1
# PI3Kδ = biological target: T4, PI3Kδ (Homo sapiens, UniProt O00329); assay: ADP-Glo lipid kinase assay, PI3Kδ kinase activity; assay type: biochemical; settings: 0.1 nM enzyme, 90 min, 100 μM ATP
# T4 construct: purchased Carna 11-103
# T4 sequence (O00329 whole entry): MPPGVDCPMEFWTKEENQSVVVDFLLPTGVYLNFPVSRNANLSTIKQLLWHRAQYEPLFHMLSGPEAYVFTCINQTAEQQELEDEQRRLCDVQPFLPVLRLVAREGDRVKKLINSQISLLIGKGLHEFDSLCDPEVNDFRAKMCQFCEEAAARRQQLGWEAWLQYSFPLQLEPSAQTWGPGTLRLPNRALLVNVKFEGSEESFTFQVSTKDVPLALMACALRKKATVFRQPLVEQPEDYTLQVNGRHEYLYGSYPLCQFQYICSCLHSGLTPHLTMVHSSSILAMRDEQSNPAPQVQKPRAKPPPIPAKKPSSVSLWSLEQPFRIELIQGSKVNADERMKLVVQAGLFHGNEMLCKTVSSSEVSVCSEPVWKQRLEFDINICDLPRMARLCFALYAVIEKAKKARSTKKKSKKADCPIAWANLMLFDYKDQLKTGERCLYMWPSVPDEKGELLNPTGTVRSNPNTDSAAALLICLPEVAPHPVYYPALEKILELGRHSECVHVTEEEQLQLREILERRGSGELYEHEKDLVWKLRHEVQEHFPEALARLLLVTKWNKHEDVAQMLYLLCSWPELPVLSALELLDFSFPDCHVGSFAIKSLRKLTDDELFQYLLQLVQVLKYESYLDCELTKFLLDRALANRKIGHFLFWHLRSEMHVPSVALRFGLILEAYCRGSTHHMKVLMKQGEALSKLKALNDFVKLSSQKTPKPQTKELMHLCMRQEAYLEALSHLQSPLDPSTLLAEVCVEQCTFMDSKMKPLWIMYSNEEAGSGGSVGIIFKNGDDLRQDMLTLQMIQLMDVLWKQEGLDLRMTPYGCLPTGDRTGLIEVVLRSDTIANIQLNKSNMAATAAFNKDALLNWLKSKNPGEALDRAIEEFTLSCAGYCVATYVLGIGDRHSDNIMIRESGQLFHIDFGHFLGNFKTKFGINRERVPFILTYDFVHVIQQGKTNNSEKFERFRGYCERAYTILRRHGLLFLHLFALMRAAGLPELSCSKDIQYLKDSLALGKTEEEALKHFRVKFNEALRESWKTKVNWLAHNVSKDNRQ
# T4 sequence (P27986 whole entry partner): as the sequence (P27986 whole entry partner) above
# Summary of the method: as §1
# [1] = test system: PI3Kα mutant cancer cells HCC1954 (H1047R); assay: Cell Titer-Glo proliferation inhibition, HCC1954; assay type: cell-based; settings: Homo sapiens, 48 to 96 hours
# Description: (§2) Experimental method: The proliferation inhibitory effect of the compounds of the examples on PI3Kα mutant cancer cell lines HCC1954, HGC-27 and MKN1 was determined by Cell Titer-Glo method. The cell lines were cultured in RPMI 1640 medium (Gibco #22400089) containing 10% FBS (Gibco #10091148) and 1% P/S (Hyclone #SV30010) at 37° C. and 5% CO2. Before the experiment, the cells were collected and counted, and then the cell density was adjusted. The cells were inoculated in a white 96-well plate (Corning #3610) at a density of 1000 to 10000 cells/well, and incubated in an incubator at 37° C., 5% CO2 overnight. The compound solution of different concentrations was added, and corresponding vehicle control was set at the same time. The cell plate was further incubated in an incubator at 37° C., 5% CO2 for 48 to 96 hours. The cell plate and its content were equilibrated to room temperature. 20 to 100 μL of Cell Titer-Glo solution (Promega #G7573) was added to each well, and the plate was shaked well and incubated at room temperature in the dark for 5 to 30 minutes. The chemiluminescence value was measured by the BioTek SynergyH1 microplate reader.
# (§3) The percentage inhibition data of the well treated by the compounds of the examples was calculated through the vehicle control well on the plate {% inhibition rate=100−(test compound value/vehicle control value)×100}. The IC50 value was calculated by fitting the data of different concentrations and corresponding percentage inhibition rates to a four-parameter nonlinear logic formula with GraphPad prism.
# [2] = test system: PI3Kα mutant cancer cells MKN1 (E545K); assay: Cell Titer-Glo proliferation inhibition, MKN1; assay type: cell-based; settings: Homo sapiens, MKN-1, 48 to 96 hours
# Description: as §2, §3
# [3] = test system: PI3Kα mutant cancer cells HGC-27 (E542K); assay: Cell Titer-Glo proliferation inhibition, HGC-27; assay type: cell-based; settings: Homo sapiens, 48 to 96 hours
# Description: as §2, §3
# T1 sequence (P42336 whole entry): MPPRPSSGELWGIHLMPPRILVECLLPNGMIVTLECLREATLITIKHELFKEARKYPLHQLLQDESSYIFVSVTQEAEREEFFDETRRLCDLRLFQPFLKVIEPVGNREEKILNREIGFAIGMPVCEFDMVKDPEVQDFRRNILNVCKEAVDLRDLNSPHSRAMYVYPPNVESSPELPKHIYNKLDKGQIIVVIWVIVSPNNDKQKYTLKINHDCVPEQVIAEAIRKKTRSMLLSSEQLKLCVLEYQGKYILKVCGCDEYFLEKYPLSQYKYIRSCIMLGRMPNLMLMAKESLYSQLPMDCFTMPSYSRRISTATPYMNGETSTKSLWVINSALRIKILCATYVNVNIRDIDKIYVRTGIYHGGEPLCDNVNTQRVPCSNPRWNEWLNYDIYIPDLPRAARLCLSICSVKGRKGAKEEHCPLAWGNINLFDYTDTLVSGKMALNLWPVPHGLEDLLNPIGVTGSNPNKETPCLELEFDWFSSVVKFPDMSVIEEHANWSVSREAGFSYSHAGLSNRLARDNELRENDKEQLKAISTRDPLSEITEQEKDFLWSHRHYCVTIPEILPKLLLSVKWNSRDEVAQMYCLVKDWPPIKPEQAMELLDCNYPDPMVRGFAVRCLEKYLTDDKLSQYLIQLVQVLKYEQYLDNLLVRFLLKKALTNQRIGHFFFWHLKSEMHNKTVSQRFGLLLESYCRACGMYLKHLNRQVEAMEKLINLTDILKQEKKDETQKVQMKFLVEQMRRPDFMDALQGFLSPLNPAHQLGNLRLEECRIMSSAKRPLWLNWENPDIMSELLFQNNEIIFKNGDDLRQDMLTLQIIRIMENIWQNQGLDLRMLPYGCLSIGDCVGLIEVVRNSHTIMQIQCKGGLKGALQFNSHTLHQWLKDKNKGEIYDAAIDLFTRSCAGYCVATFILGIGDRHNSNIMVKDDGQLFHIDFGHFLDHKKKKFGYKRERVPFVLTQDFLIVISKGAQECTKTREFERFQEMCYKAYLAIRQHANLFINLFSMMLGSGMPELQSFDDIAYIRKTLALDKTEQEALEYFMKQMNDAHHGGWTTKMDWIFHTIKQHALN
# T1 sequence (P27986 whole entry partner): as the sequence (P27986 whole entry partner) above
smiles,measurement,setting,value
"C[C@H](Nc1ccc2c(c1)OCCn1cc(N3C(=O)SC[C@H]3CC#N)nc1-2)C(N)=O [Example 119, (S)-2-((2-((R)-4-(cyanomethyl)-2-oxothiazolidin-3-yl)-5,6-dihydrobenzo[f]imidazo[1,2-d][1,4]oxazepin-9-yl)amino)propanamide]",IC50,"PI3Kα; ADP-Glo, 0.1 nM enzyme, 120 min, 50 μM ATP",2.4 nM
same,Selectivity of PI3Kα vs PI3Kβ,PI3Kα; ratio of IC50 PI3Kβ to IC50 PI3Kα,170
same,Selectivity of PI3Kα vs PI3Kγ,PI3Kα; ratio of IC50 PI3Kγ to IC50 PI3Kα,48
same,Selectivity of PI3Kα vs PI3Kδ,PI3Kα; ratio of IC50 PI3Kδ to IC50 PI3Kα,30
same,IC50,PI3Kβ,407 nM
same,IC50,PI3Kγ,116 nM
same,IC50,PI3Kδ,71 nM
same,IC50,[1],134 nM
same,IC50,[2],304 nM
same,IC50,[3],358 nM
